According to patent EP0995441A2, “Combination of compounds for treating erectile dysfunctions” (priority 1998, dated 2000):
“And” between values parts separate entries of the source, which are not always exact repeats. Identical values can stand only once.

Columns and labels:
[1] = test system: Sphincter internus und Sphincter externus; experiment: Endoscopic observation and fibre-optic pressure measurement in the prostatic urethra after injection into the corpora cavernosa; assay type: in vivo, Patienten mit Priapismus; conditions: Vergleichsgruppe with clinically sufficient erection after 100 mg Sildenafil
Text: Diese pharmakologischen Veränderungen sind ein indirekter Hinweis auf die alterierte Gefäßabflußsituation im Funktionsbereich der angrenzenden Organe an die Corpora cavernosa.

[2] = test system: Patienten mit Sildenafilresistenz; experiment: Clinical study: erection response after oral drug combination in patients not responding to sildenafil alone; assay type: in vivo
Description: Überraschenderweise erwies sich in klinischen Studien, daß Patienten mit erektiler Impotenz (ED) nach Therapieversagen unter der Behandlung mit Sildenafil allein (ED-SN negativ nach Sildenafil-Therapie in einer Menge von 100 mg Sildenafil) mit der erfindungsgemäßen Medikamentenkombination erfolgreich therapierbar waren.
Tabelle 1 zeigt die Wirkung einer Medikamentenkombination, bestehend aus Sildenafil und Midodrin der chemischen Strukturformel: [drawing 3] wobei die Sildenafil-Mengen von 10 bis 100 mg und die Midodrin-Mengen von 5 bis 25 mg variiert wurden.
Bei 10 Patienten mit ED-SN im Alter zwischen 45 bis 65 Jahren ohne Nitropräparate und koronare Herzkrankheiten lag beispielsweise die Ansprechrate der Medikamentenkombination, bestehend aus 50 mg Sildenafil und 25 mg Midodrin bei 7 von 10 Patienten, wenn die Medikamentenkombination in Form von Zwei-Kompartment-Dragees gegeben wurde.
Bei Gabe der Medikamentenkombination in einer üblichen Retard-Form gelang es, die Ansprechrate auf 8 von 10 Patienten zu erhöhen. Tabelle 1

[3] = Sildenafil Monodosis 100 mg, control of the Retardform group

CCCc1nn(C)c2c(=O)[nH]c(-c3cc(S(=O)(=O)N4CCN(C)CC4)ccc3OCC)nc12 [Sildenafil]
Druckwerte im Bereich des Sphincter internus sowie des Sphincter externus [1]: keine vergleichbaren hohen Druckwerte | Kontrolle, 1. REAKTION (INITIALPHASE): patients reacting out of 10 ([2]; Sildenafil Monodosis 10 mg): 0/10 | Kontrolle, 50% REAKTION: patients reacting out of 10 ([2]; Sildenafil Monodosis 10 mg): 0/10 | Kontrolle, MAXIMALE EREKTION: patients reacting out of 10 ([2]; Sildenafil Monodosis 10 mg): 0/10 | Kontrolle, 1. REAKTION (INITIALPHASE): patients reacting out of 10 ([2]; Sildenafil Monodosis 50 mg): 0/10 and 1/10 | Kontrolle, 50% REAKTION: patients reacting out of 10 ([2]; Sildenafil Monodosis 50 mg): 0/10 | Kontrolle, MAXIMALE EREKTION: patients reacting out of 10 ([2]; Sildenafil Monodosis 50 mg): 0/10 | Kontrolle, 1. REAKTION (INITIALPHASE): patients reacting out of 10 ([2]; Sildenafil Monodosis 100 mg): 1/10 and 0/10 | Kontrolle, 50% REAKTION: patients reacting out of 10 ([2]; Sildenafil Monodosis 100 mg): 1/10 and 0/10 | Kontrolle, MAXIMALE EREKTION: patients reacting out of 10 ([2]; Sildenafil Monodosis 100 mg): 0/10 | Kontrolle, 50% REAKTION: time [2, 3]: 105 min | Kontrolle, MAXIMALE EREKTION: time [2, 3]: 120 min
